The source of these data is US20150267113A1, “Dimercaptothiadiazoles to Prevent Corrosion of Mild Steel by Acid Gases in Oil and Gas Products” (BAKER HUGHES INCORPORATED, priority 2014, published 2015).

The conditions of data set [1]: cited from earlier work.
Data set [2] can be described thus: kettle test of corrosion inhibition, atmospheric CO2, NACE brine/ISOPAR-M. The conditions noted are these: 2.5 or 5 ppm added; 150° F. (66° C.), atmospheric CO2, 90% NACE brine and 10% ISOPAR-M; immediately after injection; blank 140 to 190 mpy. As to the method:
FIG. 1 is a graph of the corrosion rate of mild steel at 150° F. (66° C.) in kettle tests at atmospheric CO2 with two different concentrations of 2,5-dimercapto-1,3,4-thiadiazole in a brine fluid.
A formulation of 10% 2,5-dimercapto-1,3,4 thiadiazole (DMTDA) in water with KOH added to adjust the pH to 8.1 was made. The corrosion inhibition of this formulation was tested in a kettle test at 150° F. (66° C.), atmospheric CO2 in a 90% NACE (National Association of Corrosion Engineers) brine and 10% ISOPAR™-M mixture.
The blank corrosion rates range from 140 to 190 mpy (mils per year). Immediately with the injection of the corrosion inhibitor, the corrosion rate lowered to below 40 mpy in the test with the addition of 2.5 or 5 ppm of 2,5-dimercapto-1,3,4-thiadiazole.

Molecules are shown by their SMILES.

Regarding `Sc1nnc(S)s1` [2,5-dimercapto-1,3,4-thiadiazole], in data set [1], the solubility in water is 0.01 wt %. The corrosion rate result in data set [2] is listed as “below 40 mpy”.
